Reference: paper PMC7156724, “Potent BRD4 inhibitor suppresses cancer cell-macrophage interaction” (Nature Communications, 2020)
Values joined by “and” are separate entries in the source; they are usually repeats but may differ in a detail not shown here. Equal entries are not always repeated.

Columns and labels:
A2780 cells = assay: Clonogenic (colony formation) assay, A2780; type: cell-based, human; details: A2780, 250 nM, 5 days
Description: Fig. 2 NHWD-870 inhibited BRD4 phosphorylation and c-MYC expression, and suppressed cell growth. a Representative western blot analysis of p-BRD4 (s484/488), BRD4, c-MYC, and GAPDH after treatment of MDA-MB231, SUM159, A2780 ES-2, and H526 cells with JQ-1 or NHWD-870 at the indicated concentrations for 24 h. GAPDH served as the loading control. Selected from three independent experiments. b MTT assays of H526, A2780, ES-2, and MDA-MB231 cells treated with JQ-1 or NHWD-870 at the indicated concentrations for 5 days. Data are presented as mean ± SEM from three independent experiments. c, d Clonogenic assays of H526, A2780, ES-2 and MDA-MB231 cells treated with 250 nM JQ-1 or NHWD-870 for 5 days. Shown are representative images (c) and quantification of colonies (d). […] Shown are representative images (e) and quantification of relative colony sizes (f). Scale bar, 50 μm. Data are presented as mean ± SEM from five independent experiments. p values were calculated using two-tailed, unpaired t tests in this figure. **p < 0.01; ***p < 0.001. Source data are provided as a Source Data file. […]
5. Colony formation assay. Cells were seeded in 6-well plates at 3,000 cells/well […]
every week. […] Colony numbers were calculated with imageJ version

ES-2 cells = assay: 3D matrigel assay, ES-2; type: cell-based, human; details: ES-2, 100 nM
Description: Fig. 2 NHWD-870 inhibited BRD4 phosphorylation and c-MYC expression, and suppressed cell growth. a Representative western blot analysis of p-BRD4 (s484/488), BRD4, c-MYC, and GAPDH after treatment of MDA-MB231, SUM159, A2780 ES-2, and H526 cells with JQ-1 or NHWD-870 at the indicated concentrations for 24 h. GAPDH served as the loading control. Selected from three independent experiments. b MTT assays of H526, A2780, ES-2, and MDA-MB231 cells treated with JQ-1 or NHWD-870 at the indicated concentrations for 5 days. Data are presented as mean ± SEM from three independent experiments. c, d Clonogenic assays of H526, A2780, ES-2 and MDA-MB231 cells treated with 250 nM JQ-1 or NHWD-870 for 5 days. Shown are representative images (c) and quantification of colonies (d). […] Shown are representative images (e) and quantification of relative colony sizes (f). Scale bar, 50 μm. Data are presented as mean ± SEM from five independent experiments. p values were calculated using two-tailed, unpaired t tests in this figure. **p < 0.01; ***p < 0.001. Source data are provided as a Source Data file.
Single clone spheroids were generated by culturing A2780, ES-2, H526 and MDA-MB231 cells for 16 h as a hanging drop over a humidified plate in a CO2 incubator in their corresponding complete media. […] The relative spheroid sizes were measured with ImageJ version 1.52s using the 15 representative spheroids.

MDA-MB231 TNBC = MDA-MB231 TNBC xenograft growth; type: in vivo, mouse; parameters: MDA-MB231 tumor size (Sup Fig.9d; quantity and unit not given): unit not given here
Description: 4–6 weeks old female BALB/c nude mice were used for most experiments, with the exception of 6–8 weeks old female C57BL/6 mice were used for B16F10 experiments, and 6–8 weeks old male BALB/c nude mice and SD rats were used for pharmacokinetic experiments. All animals were purchased from Shanghai SIPPR-Bk Lab Animal Co., Ltd. All animals were housed under a regimen of 12 h light/12 h dark cycles and specific pathogen-free conditions. 5×10^6 NCI-H526, ES-2, MDA-MB231, A2780, A375, B16F10, and TMD-8 cells (0.1 ml) were injected subcutaneously into female nude mice. The melanoma patient-derived xenograft model was derived from a human melanoma sample (BRAF, NARS and NF1 wild type, and p53 mutant) removed from a patient in Xiangya Hospital. Surgically removed tumor fragments were implanted subcutaneously into female NSG mice. When the tumors grew to ~1000 mm^3, they were harvested and cryopreserved or immediately re-implanted for expansion or experiments. Mouse body weight and tumor sizes were measured every 3 days. Once the tumors grew to 150–200 mm^3, mice were treated with the compounds as described in the Figures. 1 × 10^6 A2780 cells (1 ml) were injected into the abdominal cavity of nude mice. Ascitic volume and tumor weight were measured by an electronic balance. All the procedures were evaluated and approved by the Institutional Animal Care and Use Committee of Central South University and Yale University.
Supplementary Figure 9. […]
PO, oral administration; QD, once daily; BID, twice daily; D, day. (c,d) Tumor growth curves for ES2 ovarian tumor (c), MDA-MB231 breast tumor (d) bearing mice treated with the indicated compounds for 21 days. Compounds were orally administrated once daily. Data are presented as mean ± SEM from 6 different mice. p values were calculated using two-tailed, unpaired t tests.
**, p<0.01; ***, p<0.001. Source data are provided as a Source Data file. […]

## Cc1nnn(C)c1-c1cnc2c3c4cnn(C)c4ccc3n([C@H](c3ccccc3)C3CCOCC3)c2c1 [NHWD-870]
A2780 cells
  Clone Number (clonogenic assay): 378 and 355 and 313 and 209 and 273
ES-2 cells
  Clone Size (relative colony size, 3D matrigel assay): 35.3 and 32.7 and 30.1 and 25.5 and 23.9
MDA-MB231 TNBC; 1mg/kg p.o. QD x 21D, day 0, individual animals
  MDA-MB231 tumor size (Sup Fig.9d; quantity and unit not given): 279.42 and 121.19 and 223.85 and 207.81 and 142.25 and 116.01
MDA-MB231 TNBC; 1mg/kg p.o. QD x 21D, day 3, individual animals
  MDA-MB231 tumor size (Sup Fig.9d; quantity and unit not given): 342.36 and 216.69 and 301.84 and 236.23 and 182.39 and 129.14
MDA-MB231 TNBC; 1mg/kg p.o. QD x 21D, day 7, individual animals
  MDA-MB231 tumor size (Sup Fig.9d; quantity and unit not given): 454.4 and 329.94 and 520.71 and 309.24 and 176.3 and 192.56
MDA-MB231 TNBC; 1mg/kg p.o. QD x 21D, day 10, individual animals
  MDA-MB231 tumor size (Sup Fig.9d; quantity and unit not given): 681 and 486.76 and 545.06 and 482.5 and 217.9 and 268.16
MDA-MB231 TNBC; 1mg/kg p.o. QD x 21D, day 14, individual animals
  MDA-MB231 tumor size (Sup Fig.9d; quantity and unit not given): 889.946 and 639.335 and 784.126 and 538.093 and 253.479 and 345.127
MDA-MB231 TNBC; 1mg/kg p.o. QD x 21D, day 17, individual animals
  MDA-MB231 tumor size (Sup Fig.9d; quantity and unit not given): 973.96 and 796.38 and 1110.48 and 713.45 and 300.77 and 432.71
MDA-MB231 TNBC; 1mg/kg p.o. QD x 21D, day 21, individual animals
  MDA-MB231 tumor size (Sup Fig.9d; quantity and unit not given): 1038.8 and 904.78 and 1426.58 and 1004.43 and 413.96 and 626.93
MDA-MB231 TNBC; 3mg/kg p.o. QD x 21D, day 0, individual animals
  MDA-MB231 tumor size (Sup Fig.9d; quantity and unit not given): 118.16 and 163.39 and 132.22 and 223.66 and 238.14 and 193.21
MDA-MB231 TNBC; 3mg/kg p.o. QD x 21D, day 3, individual animals
  MDA-MB231 tumor size (Sup Fig.9d; quantity and unit not given): 111.38 and 180.22 and 170.04 and 238.46 and 333.75 and 199.82
MDA-MB231 TNBC; 3mg/kg p.o. QD x 21D, day 7, individual animals
  MDA-MB231 tumor size (Sup Fig.9d; quantity and unit not given): 184.36 and 185.35 and 194.47 and 370.49 and 294.2 and 222.64
MDA-MB231 TNBC; 3mg/kg p.o. QD x 21D, day 10, individual animals
  MDA-MB231 tumor size (Sup Fig.9d; quantity and unit not given): 223.77 and 229.36 and 217.46 and 450.48 and 331.57 and 251.49
MDA-MB231 TNBC; 3mg/kg p.o. QD x 21D, day 14, individual animals
  MDA-MB231 tumor size (Sup Fig.9d; quantity and unit not given): 325.631 and 331.431 and 303.664 and 453.402 and 392.114 and 282.288
MDA-MB231 TNBC; 3mg/kg p.o. QD x 21D, day 17, individual animals
  MDA-MB231 tumor size (Sup Fig.9d; quantity and unit not given): 488.17 and 465.37 and 409.38 and 652.35 and 540.67 and 429.56
MDA-MB231 TNBC; 3mg/kg p.o. QD x 21D, day 21, individual animals
  MDA-MB231 tumor size (Sup Fig.9d; quantity and unit not given): 586.22 and 557.41 and 558.02 and 759.6 and 643.46 and 481.28
MDA-MB231 TNBC; MDA-MB231 TNBC, oral once daily 21 days
  effect on tumor growth: strong tumor-suppressive effects
